In patent US11332500B2, “Heterotandem bicyclic peptide complexes” (BicycleTx Limited, priority 2019, dated 2022):
Read-outs that look alike come from different tables or passages of the source. *1 amine or outer side, *2 acyl side, *3 side chain or, on linkers, in order; H or OH if unused. Where a SMILES comes first, the peptide text is derived from it. Bridges are numbered along the chain shown (N, C = ends). Roman numbers before positions name the chains, in order. [ ]: non-standard residue; d: D form. TATA = O=C(CC[*:1])N1CN(C(=O)CC[*:2])CN(C(=O)CC[*:3])C1; X1 = O=C(CCc1cn(CCOCCOCCOCCOCCOCCC(=O)[*:2])nn1)[*:1]; X2 = O=C(CCOCCOCCOCCOCCOCCn1cc(CCC(=O)[*:2])nn1)[*:1]; Dip = N[C@H](C(=O)O)C(c1ccccc1)c1ccccc1; Hyp = O=C(O)[C@@H]1C[C@@H](O)CN1; hArg = N=C(N)NCCCC[C@H](N)C(=O)O; tBuAla = CC(C)(C)C[C@H](N)C(=O)O; Cba = N[C@@H](CC1CCC1)C(=O)O; Nle = CCCC[C@H](N)C(=O)O

Key:
[1] = target: T1, CD137 (Homo sapiens, UniProt Q07011); assay: CD137 reporter assay co-culture with RKO tumour cells (PD-L1/CD137 heterotandems); format: cell-based; details: Jurkat CD137 reporter cells co-cultured with RKO (PD-L1), 6 h; read-out: Fold Induction over background
T1 construct: host or cells: Jurkat reporter cells from the Promega kit, co-cultured with tumour cells (NCI-H292, PC3 or RKO)
T1 sequence (Q07011 24-255): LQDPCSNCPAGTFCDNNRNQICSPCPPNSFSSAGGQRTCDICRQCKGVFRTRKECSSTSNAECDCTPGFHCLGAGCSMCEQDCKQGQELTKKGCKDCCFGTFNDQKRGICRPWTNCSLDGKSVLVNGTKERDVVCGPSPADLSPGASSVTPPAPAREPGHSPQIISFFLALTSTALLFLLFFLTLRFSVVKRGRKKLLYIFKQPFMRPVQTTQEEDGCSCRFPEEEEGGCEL
Experimental: Culture medium, referred to as R1 media, is prepared by adding 1% FBS to RPMI-1640 (component of Promega kit CS196005). Serial dilutions of test articles in R1 are prepared in a sterile 96 well-plate. Add 25 μL per well of test articles or R1 (as a background control) to designated wells in a white cell culture plate. Tumour cells* are harvested and resuspended at a concentration of 400,000 cells/mL in R1 media. Twenty five (25) μL/well of tumour cells are added to the white cell culture plate. Jurkat cells (Promega kit CS196005, 0.5 mL) are thawed in the water bath and then added to 5 ml pre-warmed R1 media. Twenty five (25) μL/well of Jurkat cells are then added to the white cell culture plate. Incubate the cells and test articles for 6 h at 37° C., 5% CO2. At the end of 6 h, add 75 μL/well Bio-Glo™ reagent (Promega) and incubate for 10 min before reading luminescence in a plate reader (Clariostar, BMG). The fold change relative to cells alone (Jurkat cells+Cell line used in co-culture) is calculated and plotted in GraphPad Prism as log(agonist) vs response to determine EC50 (nM) and Fold Induction over background (Max).
The tumour cell type used in co-culture for EphA2 is PC3. The tumour cell type used in co-culture for PD-L1 is RKO.
A summary of the fold induction induced by PD-L1/CD137 heterotandem peptides in the CD137 reporter coculture assay with RKO cells is shown in Table 3.

[2] = Pharmacokinetics of CD137 heterotandem bicyclic peptide complexes in SD rats; details: rat, in vivo, male SD rats, IV Inf, plasma; for clearance: read-out: Clp; for half-life: read-out: T½ (converted); for Vd: read-out: Vdss
Experimental: Male SD Rats were dosed with 2 mg/kg of each heterotandem Bicycle peptide complex formulated in 25 mM Histidine HCl, 10% sucrose pH 7. Serial bleeding (about 80 μL blood/time point) was performed via submadibular or saphenous vein at each time point. All blood samples were immediately transferred into prechilled microcentrifuge tubes containing 2 μL K2-EDTA (0.5M) as anti-coagulant and placed on wet ice. Blood samples were immediately processed for plasma by centrifugation at approximately 4° C., 3000 g. The precipitant including internal standard was immediately added into the plasma, mixed well and centrifuged at 12,000 rpm, 4° C. for 10 minutes. The supernatant was transferred into pre-labeled polypropylene microcentrifuge tubes, and then quick-frozen over dry ice. The samples were stored at […] or below as needed until analysis. 7.5 μL of the supernatant samples were directly injected for LC-MS/MS analysis using an Orbitrap Q Exactive in positive ion mode to determine the concentrations of Bicycle. Plasma concentration versus time data were analyzed by non-compartmental approaches using the Phoenix WinNonlin 6.3 software program. C0, Cl, Vdss, T½, AUC(0-last), AUC(0-inf), MRT(0-last), MRT(0-inf) and graphs of plasma concentration versus time profile were reported.

| SMILES | fold induction [1] | clearance ([2]; 3.0 mg/kg) [L/h/kg] | half-life ([2]; 3.0 mg/kg) [h] | Vd ([2]; 3.0 mg/kg) [L/kg] | other results |
| --- | --- | --- | --- | --- | --- |
| CCCC[C@@H]1NC(=O)[C@H](Cc2ccc(O)cc2)NC(=O)[C@@H]2CCCN2C(=O)[C@H](CC(=O)O)NC(=O)[C@H](C)NC(=O)[C@H](Cc2ccccc2)NC(=O)[C@@H]2CSCCC(=O)N3CN(CN(C3)C(=O)CCSC[C@@H](C(=O)N[C@@H](C)C(N)=O)NC1=O)C(=O)CCSC[C@H](NC(C)=O)C(=O)N[C@@H](CC(C)(C)C)C(=O)N1CCC[C@H]1C(=O)N[C@@H](CCC(=O)O)C(=O)N[C@H](CCCCNC(=O)CCc1cn(CCOCCOCCOCCOCCOCCC(=O)NCCCC[C@@H]3NC(=O)[C@H](CCC(N)=O)NC(=O)[C@@H]4CSCCC(=O)N5CN(CN(C5)C(=O)CCSC[C@@H](C(=O)N5CCC[C@H]5C(=O)N[C@@H](CO)C(=O)N[C@@H](Cc5c[nH]cn5)C(N)=O)NC(=O)[C@H](CC(C)C)NC(=O)[C@H](Cc5c[nH]cn5)NC(=O)[C@H](CC(C)C)NC3=O)C(=O)CCSC[C@H](NC(=O)[C@H](CCCCNC(=N)N)NC(=O)[C@H](CC(=O)O)NC(C)=O)C(=O)N[C@@H](CO)C(=O)N[C@@H](C)C(=O)NCC(=O)N[C@@H](Cc3c[nH]c5ccccc35)C(=O)N[C@@H](CC(C)C)C(=O)N[C@@H]([C@@H](C)O)C(=O)N[C@@H](CCSC)C(=O)N4)nn1)C(=O)N1CCC[C@H]1C(=O)N[C@@H](Cc1ccc(O)cc1)C(=O)N2 [BCY12229] (I: Ac-D[hArg]CSAGWLTMCQKLHLCPSH-NH2 / II: Ac-C[tBuAla]PE[dK]PYCFADPY[Nle]CA-NH2; linker I:3-I:11-I:17, II:1-II:8-II:15 via TATA; linker I:13-II:5 via X2) | 8 | – | – | – | – |
| CCCC[C@@H]1NC(=O)[C@H](Cc2ccc(O)cc2)NC(=O)[C@@H]2CCCN2C(=O)[C@H](CC(=O)O)NC(=O)[C@H](C)NC(=O)[C@H](Cc2ccccc2)NC(=O)[C@@H]2CSCCC(=O)N3CN(CN(C3)C(=O)CCSC[C@@H](C(=O)N[C@@H](C)C(N)=O)NC1=O)C(=O)CCSC[C@H](NC(C)=O)C(=O)N[C@@H](CC(C)(C)C)C(=O)N1CCC[C@H]1C(=O)N[C@@H](CCC(=O)O)C(=O)N[C@H](CCCCNC(=O)CCc1cn(CCOCCOCCOCCOCCOCCC(=O)NCCCC[C@@H]3NC(=O)[C@H](CO)NC(=O)[C@@H](NC(=O)[C@H](CCCCNC(=N)N)NC(=O)[C@H](CC(=O)O)NC(C)=O)CSCCC(=O)N4CN5CN(C4)C(=O)CCSC[C@@H](C(=O)N4CCC[C@H]4C(=O)N[C@@H](CO)C(=O)N[C@@H](Cc4c[nH]cn4)C(N)=O)NC(=O)[C@H](CC(C)C)NC(=O)[C@H](Cc4c[nH]cn4)NC(=O)[C@H](CC(C)C)NC(=O)[C@H](CCCCNC(C)=O)NC(=O)[C@H](CCC(N)=O)NC(=O)[C@H](CSCCC5=O)NC(=O)[C@H](CCSC)NC(=O)[C@H]([C@@H](C)O)NC(=O)[C@H](CC(C)C)NC(=O)[C@H](Cc4c[nH]c5ccccc45)NC(=O)CNC3=O)nn1)C(=O)N1CCC[C@H]1C(=O)N[C@@H](Cc1ccc(O)cc1)C(=O)N2 [BCY12230] (I: Ac-D[hArg]CSKGWLTMCQK(Ac)LHLCPSH-NH2 / II: Ac-C[tBuAla]PE[dK]PYCFADPY[Nle]CA-NH2; linker I:3-I:11-I:17, II:1-II:8-II:15 via TATA; linker I:5-II:5 via X2) | 10 | – | – | – | – |
| CCCC[C@@H]1NC(=O)[C@H](Cc2ccc(O)cc2)NC(=O)[C@@H]2CCCN2C(=O)[C@H](CC(=O)O)NC(=O)[C@H](C)NC(=O)[C@H](Cc2ccccc2)NC(=O)[C@@H]2CSCCC(=O)N3CN(CN(C3)C(=O)CCSC[C@@H](C(=O)N[C@@H](C)C(N)=O)NC1=O)C(=O)CCSC[C@H](NC(C)=O)C(=O)N[C@@H](CC(C)(C)C)C(=O)N1CCC[C@H]1C(=O)N[C@@H](CCC(=O)O)C(=O)N[C@H](CCCCNC(=O)CCOCCOCCOCCOCCOCCn1cc(CCC(=O)NCCCC[C@H](NC(=O)[C@@H]3CSCCC(=O)N4CN5CN(C4)C(=O)CCSC[C@H](NC(=O)[C@H](CC(=O)O)NC(=O)[C@H](CCCCNC(=N)N)NC(=O)[C@H](C)NC(C)=O)C(=O)N4C[C@H](O)C[C@H]4C(=O)N[C@@H](CC(C)C)C(=O)N[C@@H](C(C)C)C(=O)N[C@@H](CC(N)=O)C(=O)N4CCC[C@H]4C(=O)N[C@@H](CC(C)C)C(=O)N[C@@H](CSCCC5=O)C(=O)N[C@@H](CC(C)C)C(=O)N[C@@H](Cc4c[nH]cn4)C(=O)N4CCC[C@H]4C(=O)N[C@H](CC(=O)O)C(=O)N[C@@H](Cc4c[nH]c5ccccc45)C(=O)N[C@@H](CCCCNC(=N)N)C(=O)N3)C(N)=O)nn1)C(=O)N1CCC[C@H]1C(=O)N[C@@H](Cc1ccc(O)cc1)C(=O)N2 [BCY12234] (I: Ac-A[hArg]DC[Hyp]LVNPLCLHP[dD]W[hArg]CK-NH2 / II: Ac-C[tBuAla]PE[dK]PYCFADPY[Nle]CA-NH2; linker I:4-I:11-I:18, II:1-II:8-II:15 via TATA; linker I:19-II:5 via X1) | – | – | – | – | clearance ([2]; 2.0 mg/kg): 1.56 L/h/kg; half-life ([2]; 2.0 mg/kg): 0.42 h; Vd ([2]; 2.0 mg/kg): 0.95 L/kg |
| CCCC[C@@H]1NC(=O)[C@H](Cc2ccc(O)cc2)NC(=O)[C@@H]2CCCN2C(=O)[C@H](CC(=O)O)NC(=O)[C@H](C)NC(=O)[C@H](Cc2ccccc2)NC(=O)[C@@H]2CSCCC(=O)N3CN(CN(C3)C(=O)CCSC[C@@H](C(=O)N[C@@H](C)C(N)=O)NC1=O)C(=O)CCSC[C@H](NC(C)=O)C(=O)N[C@@H](CC(C)(C)C)C(=O)N1CCC[C@H]1C(=O)N[C@@H](CCC(=O)O)C(=O)N[C@H](CCCCNC(=O)CCc1cn(CCOCCOCCOCCOCCOCCC(=O)N[C@H]3CSCCC(=O)N4CN5CN(C4)C(=O)CCSC[C@H](NC(=O)[C@H](CC(C)C)NC(=O)[C@@H]4CCCN4C(=O)[C@H](CC(N)=O)NC(=O)[C@H](C(C)C)NC(=O)[C@H](CC(C)C)NC(=O)[C@@H]4C[C@@H](O)CN4C3=O)C(=O)N[C@@H](CC(C)C)C(=O)N[C@@H](C(c3ccccc3)c3ccccc3)C(=O)N3CCC[C@H]3C(=O)N[C@H](CC(=O)O)C(=O)N[C@@H](Cc3c[nH]c4ccccc34)C(=O)N[C@@H]([C@@H](C)O)C(=O)N[C@H](C(N)=O)CSCCC5=O)nn1)C(=O)N1CCC[C@H]1C(=O)N[C@@H](Cc1ccc(O)cc1)C(=O)N2 [BCY13035] (I: Ac-C[tBuAla]PE[dK]PYCFADPY[Nle]CA-NH2 / II: C[Hyp]LVNPLCL[Dip]P[dD]WTC-NH2; linker I:1-I:8-I:15, II:1-II:8-II:15 via TATA; linker I:5-II:N via X1) | – | 0.66 | 1.5 | 0.63 | – |
| CCCC[C@@H]1NC(=O)[C@H](Cc2ccc(O)cc2)NC(=O)[C@@H]2CCCN2C(=O)[C@H](CC(=O)O)NC(=O)[C@H](C)NC(=O)[C@H](Cc2ccccc2)NC(=O)[C@@H]2CSCCC(=O)N3CN(CN(C3)C(=O)CCSC[C@@H](C(=O)N[C@@H](C)C(N)=O)NC1=O)C(=O)CCSC[C@H](NC(C)=O)C(=O)N[C@@H](CC(C)(C)C)C(=O)N1CCC[C@H]1C(=O)N[C@@H](CCC(=O)O)C(=O)N[C@H](CCCCNC(=O)CCc1cn(CCOCCOCCOCCOCCOCCC(=O)N[C@H]3CSCCC(=O)N4CN5CN(C4)C(=O)CCSC[C@@H](C(=O)N[C@H](C)C(N)=O)NC(=O)[C@H]([C@@H](C)O)NC(=O)[C@H](Cc4c[nH]c6ccccc46)NC(=O)[C@@H](CC(=O)O)NC(=O)[C@@H]4CCCN4C(=O)[C@H](C(c4ccccc4)c4ccccc4)NC(=O)[C@H](CC(C)C)NC(=O)[C@H](CSCCC5=O)NC(=O)[C@H](CC(C)C)NC(=O)[C@@H]4CCCN4C(=O)[C@H](CC(N)=O)NC(=O)[C@H](C(C)C)NC(=O)[C@H](CC4CCC4)NC(=O)[C@@H]4C[C@@H](O)CN4C3=O)nn1)C(=O)N1CCC[C@H]1C(=O)N[C@@H](Cc1ccc(O)cc1)C(=O)N2 [BCY13040] (I: C[Hyp][Cba]VNPLCL[Dip]P[dD]WTC[dA]-NH2 / II: Ac-C[tBuAla]PE[dK]PYCFADPY[Nle]CA-NH2; linker I:1-I:8-I:15, II:1-II:8-II:15 via TATA; linker I:N-II:5 via X2) | – | 0.6 | 1.6 | 0.63 | – |
